Test results as given in the supplement of paper PMC11061612.

Tests used:
Experiment in all cases: Bliss excess, mean over the matrix (fraction); higher = more synergy
[1] = system: NCI-H1793 (Lung Adenocarcinoma)
In short: (§1)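 Bliss excess equals the observed combination effect minus the expected value EA + EB − EA·EB, where EA and EB are the effects of each agent alone. Combination Emax is the second-highest inhibition within the matrix. Inhibition was scaled from CellTiter-Glo 2.0 luminescence, with 0 set by vehicle wells and 1 by blank wells, after 72 hours of two-drug dosing of cells plated in 1536-well plates.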

[2] = system: NALM-6 (B-Lymphoblastic Leukemia)
In short: as §1

[3] = system: KARPAS-620 (Plasma Cell Myeloma)
In short: as §1

[4] = system: G-292-Clone-A141B1 (Osteosarcoma)
In short: as §1

[5] = system: MDA-MB-157 (Breast Carcinoma)
In short: as §1

[6] = system: SW780 (Bladder Carcinoma)
In short: as §1

[7] = system: SNU-C5 (Colorectal Carcinoma)
In short: as §1

[8] = system: CFPAC-1 (Pancreatic Carcinoma)
In short: as §1

[9] = system: 697 (B-Lymphoblastic Leukemia)
In short: as §1

[10] = system: KATOIII (Gastric Carcinoma)
In short: as §1

SN12C (Kidney Carcinoma) = system: SN12C (Kidney Carcinoma)
In short: as §1

[11] = system: KM-H2 (Hodgkin's Lymphoma)
In short: as §1

[12] = system: JiyoyeP-2003 (Burkitt's Lymphoma)
In short: as §1

[13] = system: C3A (Hepatocellular Carcinoma)
In short: as §1

[14] = system: HPAC (Pancreatic Carcinoma)
In short: as §1

IGR-1 (Melanoma) = system: IGR-1 (Melanoma)
In short: as §1

[15] = system: MFH-ino (Other Solid Carcinomas)
In short: as §1

[16] = system: EM-2 (Chronic Myelogenous Leukemia)
In short: as §1

[17] = system: MDA-MB-231 (Breast Carcinoma)
In short: as §1

CAL-78 (Chondrosarcoma) = system: CAL-78 (Chondrosarcoma)
In short: as §1

Row | Compound | Bliss excess [1] | Bliss excess [2] | Bliss excess [3] | Bliss excess [4] | Bliss excess [5] | Bliss excess [6] | Bliss excess [7] | Bliss excess [8] | Bliss excess [9] | Bliss excess [10] | Bliss excess (SN12C (Kidney Carcinoma)) | Bliss excess [11] | Bliss excess [12] | Bliss excess [13] | Bliss excess [14] | Bliss excess (IGR-1 (Melanoma)) | Bliss excess [15] | Bliss excess [16] | Bliss excess [17] | Bliss excess (CAL-78 (Chondrosarcoma))
1 | Cn1cnc2c(F)c(Nc3ccc(Br)cc3Cl)c(C(=O)NOCCO)cc21 [Selumetinib] + C=CCn1c(=O)c2cnc(Nc3ccc(N4CCN(C)CC4)cc3)nc2n1-c1cccc(C(C)(C)O)n1 [AZD1775] (first compound max 10 µM, partner max 1 µM) | -0.0764 | 0.0755 | 0.0719 | -0.0458 | 0.0096 | -0.0555 | 0.0241 | -0.0439 | -0.0131 | 0.0186 | -0.0228 | -0.0685 | -0.0563 | -0.022 | -0.0467 | 0.0466 | -0.0316 | -0.0618 | -0.0337 | -0.07
2 | C=CCn1c(=O)c2cnc(Nc3ccc(N4CCN(C)CC4)cc3)nc2n1-c1cccc(C(C)(C)O)n1 [AZD1775] + C[C@@H]1COCCN1C2=NC(=NC(=C2)C3(CC3)[S@](=N)(=O)C)C4=C5C=CNC5=NC=C4 [AZD6738] (first compound max 1 µM, partner max 10 µM) | -0.0289 | 0.0491 | 0.0335 | -0.0665 | 0.0217 | -0.0092 | -0.0173 | -0.0369 | 0.047 | -0.0139 | -0.0359 | 0.0647 | 0.046 | -0.0104 | 0.0473 | 0.0632 | -0.0909 | 0.0362 | 0.0726 | 0.0171
3 | NC1(C(=O)N[C@@H](CCO)c2ccc(Cl)cc2)CCN(c2ncnc3[nH]ccc23)CC1 [Capivasertib] + COc1nnc2ccc(N3CCC(c4ccc(OCCN5CCN(C)C(=O)[C@H]5C)cc4)CC3)nn12 [AZD5153] (first compound max 10 µM, 7x7, partner max 1 µM) | 0.0278 | -0.0517 | -0.0154 | 0.0249 | 0.0204 | 0.0042 | 0.0669 | 0.0332 | -0.065 | -0.0386 | -0.0155 | 0.0144 | -0.0714 | 0.0515 | 0.0657 | -0.0325 | 0.0006 | 0.0043 | -0.009 | 0.0536
4 | CC1(C)CCC(CN2CCN(c3ccc(C(=O)NS(=O)(=O)c4ccc(NCC5CCOCC5)c([N+](=O)[O-])c4)c(Oc4cnc5[nH]ccc5c4)c3)CC2)=C(c2ccc(Cl)cc2)C1 [Venetoclax] + Cc1cc2ncnn2cc1Nc1ncc2c(n1)n(C1CCOCC1)c(=O)n2C [AZD7648] (first compound max 1 µM, 7x7, partner max 10 µM) | -0.042 | -0.0184 | 0.0454 | -0.037 | -0.0154 | -0.0035 | -0.0233 | -0.0359 | -0.0154 | -0.0076 | -0.0471 | -0.0322 | -0.0604 | -0.0588 | 0.0142 | -0.0287 | -0.0328 | -0.0135 | 0.0192 | 0.0236
5 | CN(CCO)CC[C@H](CSc1ccccc1)Nc1ccc(S(=O)(=O)NC(=O)c2ccc(N3CCC([C@@H](O)c4ccccc4-c4ccc(Cl)cc4)CC3)cc2)cc1S(=O)(=O)C(F)(F)F [AZD4320] + C=CCn1c(=O)c2cnc(Nc3ccc(N4CCN(C)CC4)cc3)nc2n1-c1cccc(C(C)(C)O)n1 [AZD1775] (first compound max 1 µM, partner max 1 µM) | -0.0061 | 0.0725 | -0.0125 | 0.0335 | 0.0043 | 0.0079 | -0.0062 | -0.0373 | 0.0545 | -0.043 | -0.0099 | -0.006 | 0.0154 | -0.0619 | -0.0048 | 0.146 | -0.0288 | -0.0381 | 0.0551 | 0.073
6 | CN(C)CCCOc1ccc(-c2ccc3ncc4c(c3c2)n(C2CCOCC2)c(=O)n4C)cn1 [AZD0156] + CCN(CCO)CCCOc1ccc2c(Nc3cc(CC(=O)Nc4cccc(F)c4)[nH]n3)ncnc2c1 [AZD2811] (first compound max 1 µM, 7x7, partner max 1 µM) | -0.0309 | -0.0755 | 0.112 | -0.0669 | -0.0069 | -0.0268 | 0.0043 | -0.0713 | -0.015 | -0.0366 | -0.0563 | 0.0446 | 0.0832 | -0.0792 | 0.012 | -0.0235 | -0.0453 | -0.0445 | -0.0296 | 0.006
7 | CC1(C)CCC(CN2CCN(c3ccc(C(=O)NS(=O)(=O)c4ccc(NCC5CCOCC5)c([N+](=O)[O-])c4)c(Oc4cnc5[nH]ccc5c4)c3)CC2)=C(c2ccc(Cl)cc2)C1 [Venetoclax] + C1CN(CCC1(C(=O)N[C@@H](CCO)C2=CC=C(C=C2)Cl)N)C3=NC=NC4=C3C=CN4 [Capivasertib] (first compound max 1 µM, 7x7, partner max 3 µM) | -0.041 | 0.0346 | 0.0971 | -0.0701 | -0.0187 | -0.0335 | -0.0069 | -0.0274 | -0.0154 | -0.0691 | -0.0557 | -0.0178 | -0.0144 | -0.0621 | -0.0234 | -0.0602 | -0.0294 | -0.0593 | -0.0443 | -0.0387
8 | CC1(C)CCC(CN2CCN(c3ccc(C(=O)NS(=O)(=O)c4ccc(NCC5CCOCC5)c([N+](=O)[O-])c4)c(Oc4cnc5[nH]ccc5c4)c3)CC2)=C(c2ccc(Cl)cc2)C1 [Venetoclax] + CCN(CCO)CCCOc1ccc2c(Nc3cc(CC(=O)Nc4cccc(F)c4)[nH]n3)ncnc2c1 [AZD2811] (first compound max 1 µM, 7x7, partner max 1 µM) | -0.0039 | 0.0968 | 0.169 | -0.0413 | 0.0119 | -0.007 | 0.0063 | -0.024 | 0.0078 | -0.0226 | -0.0267 | 0.0106 | 0.0467 | -0.0359 | -0.0275 | 0.0261 | -0.0239 | -0.0721 | -0.013 | 0.0143
9 | Cc1c2c(nn1C)CSCc1cc(n(C)n1)CSc1cc(c3ccccc3c1)OCCCc1c(C(=O)O)n(C)c3c-2c(Cl)ccc13 [AZD5991] + C[C@@H](Nc1cc(F)cc(F)c1)c1cc(C(=O)N(C)C)cc2c(=O)cc(N3CCOCC3)oc12 [AZD8186] (first compound max 1 µM, 7x7, partner max 3 µM) | -0.0254 | 0.0341 | -0.0113 | -0.013 | 0.0836 | 0.0157 | 0.0464 | -0.0077 | -0.0743 | -0.0132 | -0.0725 | -0.0338 | 0.0635 | -0.0375 | -0.0297 | -0.0031 | -0.0452 | -0.0528 | -0.015 | -0.0799
10 | COc1nnc2ccc(N3CCC(c4ccc(OCCN5CCN(C)C(=O)[C@H]5C)cc4)CC3)nn12 [AZD5153] + C[C@@H]1COCCN1C2=NC(=NC(=C2)C3(CC3)[S@](=N)(=O)C)C4=C5C=CNC5=NC=C4 [AZD6738] (first compound max 1 µM, 7x7, partner max 10 µM) | 0.0127 | -0.0624 | -0.0429 | 0.0166 | -0.0138 | -0.0052 | 0.0359 | 0.015 | -0.0106 | -0.0164 | -0.0091 | -0.008 | -0.047 | 0.0348 | 0.0368 | 0.0759 | -0.0801 | 0.039 | -0.0477 | 0.0093
11 | COc1cccc2c1C(=O)c1c(O)c3c(c(O)c1C2=O)C[C@@](O)(C(=O)CO)C[C@@H]3O[C@H]1C[C@H](N)[C@H](O)[C@H](C)O1 [Doxorubicin] + Cc1cc2ncnn2cc1Nc1ncc2c(n1)n(C1CCOCC1)c(=O)n2C [AZD7648] (first compound max 1 µM, 7x7, partner max 10 µM) | 0.0117 | 0.139 | -0.0381 | -0.0023 | 0.0033 | 0.0082 | 0.0378 | 0.0253 | 0.101 | -0.0354 | 0.0191 | 0.116 | 0.094 | -0.0065 | 0.0275 | 0.0132 | 0.0216 | 0.0536 | -0.0124 | 0.0132
12 | Cc1c2c(nn1C)CSCc1cc(n(C)n1)CSc1cc(c3ccccc3c1)OCCCc1c(C(=O)O)n(C)c3c-2c(Cl)ccc13 [AZD5991] + CC1(C)CCC(CN2CCN(c3ccc(C(=O)NS(=O)(=O)c4ccc(NCC5CCOCC5)c([N+](=O)[O-])c4)c(Oc4cnc5[nH]ccc5c4)c3)CC2)=C(c2ccc(Cl)cc2)C1 [Venetoclax] (first compound max 1 µM, 7x7, partner max 1 µM) | -0.0081 | 0.173 | 0.119 | -0.0292 | 0.004 | 0.0215 | -0.0164 | -0.0112 | -0.0564 | -0.0176 | -0.0193 | -0.0094 | 0.0249 | -0.0519 | -0.0498 | 0.2 | -0.0512 | 0.248 | 0.0126 | -0.0118
13 | CCc1c2c(nc3ccc(O)cc13)-c1cc3c(c(=O)n1C2)COC(=O)[C@]3(O)CC [SN-38] + CN(C)CCCOc1ccc(-c2ccc3ncc4c(c3c2)n(C2CCOCC2)c(=O)n4C)cn1 [AZD0156] (first compound max 0.3 µM, 7x7, partner max 1 µM) | -0.026 | 0.0336 | -0.0242 | -0.0508 | 0.0653 | -0.0475 | 0.036 | -0.0436 | 0.0689 | -0.0305 | 0.011 | 0.0794 | 0.0406 | -0.0646 | 0.0584 | 0.0179 | -0.0032 | 0.0812 | 0.0937 | -0.0547
14 | COc1nnc2ccc(N3CCC(c4ccc(OCCN5CCN(C)C(=O)[C@H]5C)cc4)CC3)nn12 [AZD5153] + Cn1cnc2c(F)c(Nc3ccc(Br)cc3Cl)c(C(=O)NOCCO)cc21 [Selumetinib] (first compound max 1 µM, 7x7, partner max 10 µM) | 0.0212 | 0.0085 | 0.112 | -0.0388 | 0.0292 | -0.058 | -0.0116 | -0.0149 | -0.0389 | -0.0294 | 0.0158 | -0.0839 | -0.0117 | -0.0272 | 0.0161 | 0.0544 | -0.0031 | 0.0468 | 0.0516 | -0.0315
